Patent US20030100508A1, “Carbohydrate epitope mimic compounds and uses thereof” (priority 1999, published 2003)

Columns and labels:
[1] = tested on: HNK-1 antibody; test: Phage ELISA: binding of phage clones to coated HNK-1 antibody; parameters: species or system mouse; conditions: 100 μl culture supernatant; antibody 1 μg/ml coating
Procedure: (§1) Comparative binding of the HNK-1 selected phage/positive clones versus the L2-412 selected 15-15 phage to bound L2-412 antibody, IgG, HNK-1, and IgM is shown FIG. 14. Supernatant (100 μl) from an overnight culture of bacteria secreting phade were incubated with coated antibodies (100 μl of 1 μg/ml useded for coating) and detected with HRP-coupled anti-phage antibody.
Individual colonies resistant to tetracycline and kanamycin were grown in LB containing 20 μg/mil tetracycline in 96-wells plates (Nunc) overnight at 37° C. (300 μl/well), then centrifuged 10 minutes at 3000 rpm in Jouan centrifuge and the supernatant (100 μl) was incubated for 2 hr in another 96-well plate previously coated with mAbL2-412 (100 μl, μg/l ml overnight at 4° C.) and blocked by incubation for 2 hours with PBS-0.5% (w/v) BSA. After washing 5 times, the binding of the phages was detected by incubation with HRP-conjugated anti-M13 antibody (Pharmacia, Biotech.) for 1 hour at a dilution of 1:2000. The peroxidase reaction was started by the addition of 100 μl developer containing 0.01% hydrogen peroxide and 0.1% (w/v) 2,2′-azino-bis(3-ethylbenzthiazoline-6-sulfonic acid)-diammonium salt (ABTS, Boehringer Mannheim) in HRP buffer (0.1M sodium acetate, 0.05M NaH2PO4, pH adjusted to 4.2 with acetic acid). The absorbance of the colored reaction product was determined at 405 nm in a Multiscan TitertekPlus (Flow, Switzerland). […] Two individual colonies were picked and re-assayed for positivity towards mAb L2-412. Positive single colonies were stored in 40% glycerol at −80° C.

[2] = tested on: L2-412 antibody; test: Phage ELISA: binding of phage clones to coated L2-412 antibody; parameters: species or system rat; conditions: 100 μl culture supernatant; antibody 1 μg/ml coating
Procedure: as §1
Individual colonies resistant to tetracycline and kanamycin were grown in LB containing 20 μg/mil tetracycline in 96-wells plates (Nunc) overnight at 37° C. (300 μl/well), then centrifuged 10 minutes at 3000 rpm in Jouan centrifuge and the supernatant (100 μl) was incubated for 2 hr in another 96-well plate previously coated with mAbL2-412 (100 μl, μg/l ml overnight at 4° C.) and blocked by incubation for 2 hours with PBS-0.5% (w/v) BSA. After washing 5 times, the binding of the phages was detected by incubation with HRP-conjugated anti-M13 antibody (Pharmacia, Biotech.) for 1 hour at a dilution of 1:2000. […] The absorbance of the colored reaction product was determined at 405 nm in a Multiscan TitertekPlus (Flow, Switzerland). […]

[3] = target: T1, laminin (Mus musculus, UniProt P19137); test: Binding of phage to immobilized laminin; conditions: laminin 10 μg/ml coating; anti-M13 HRP detection
T1 construct: purchased Gibco/BRL
Procedure: FIG. 5 depicts binding of phage 15-15 and control phage UBR2 to immobilized laminin (100 μl of 10 μg/ml used for coating). Bound phage were detected by HRP-conjugated anti-M13 antibody. The results are presented as OD405 vs. relative concentration of the phage preparation (a relative concentration of 100 corresponds to […] phage).

[4] = tested on: L2-412 antibody; test: Competition ELISA: binding of mAb L2-412 to immobilized L2/HNK-1 glycolipids; parameters: species or system rat
Procedure: FIG. 2A depicts competition of the L2-412 antibody to immobilized L2/HNK-1 glycolipids by various inhibitors: positive phage (denoted phage 15-15), negative phage (denoted neg. control phage), free peptide (denoted peptide 15-15) and SO3-sugar. L2-412 was preincubated with a stepwise 2-fold dilution series of the free peptide (starting concentration 2.2 mM), SO3-sugar (starting concentration 5 mM), positive phage and negative phage (starting concentration 10^12TUs/ml), and added to the coated glycolipid. After incubation and washing, the bound antibody was detected with HRP anti-rat antibody.
FIG. 2B depicts the percentage inhibition of L2-412 antibody to immobilized L2/HNK-1 glycolipids by various inhibitors. The percentage is calculated for the point in FIG. 2A with the highest concentration of inhibitor. […]
Microtiter plates (Nunc) were coated with the L2/HNK-1 glycolipids (50 μl, 1 μg/ml, dissolved in EtOH) and allowed to dry overnight. While blocking the wells for 2 hours with 0.5% (w/v) fatty-acid-free BSA in PBS, a limiting concentration of ^L2-412, previously determined, was pre-incubated with successive 2-fold dilutions of the inhibitor, starting at a concentration of 2.2 mM for the free peptide, 5 mM for the SO3 sugar and 10^12 positive and negative phages (the negative phages were cloned from the unbound fraction of the first round of screening). […]

[5] = tested on: neural cell adhesion to laminin; conditions: Hall et al. 1995; cited from earlier work
[6] = Hall et al. 1995; cited from earlier work
[7] = tested on: Ox42 (MAC 1), TNF and GFAP expression; test: gp120-mediated inflammation and neuropathy, sciatic nerve Oxycel delivery, spinal cord immunohistochemistry; type: in vivo, rat
Description: Herzberg et al coated the sciatic nerve of rats with oxidized cellulose saturated with gp120 or BSA as control. Persistant hyperalgesia and allodynia were observed throughout a one month testing period in rats treated with gp120. […] This system was utilized to assess the affect of the 8-mer peptide on gp120-mediated inflammation and neuropathy, using Ox42 (MAC 1), TNF and GFAP expression as immunohistochemical markers.
Ox42 (also called MACl) is a general marker for immune/inflammatory activation of the central nervous system (expressed by microglia—when those proliferate and/or extend their processes). If Ox42 marker is present two weeks, and particularly four weeks, after initial neural injury, this indicates a chronic problem. An ongoing inflammatory process in the CNS is correlative of neuropathy. TNF is a cytokine indicating an inflammatory process, and in this case neuronal degeneration. It's expression increases in the CSF of pateints with HIV related neuropathy and is thought to play a role in the degenerative process in these patients (see “role of immune activation and cytokine expression in HIV-1 associated neurologic disease” bay Masaru Yoshioka Walter G Bradley, Paul Shapshak, Isao Nagano, Rene V. Stewart, Ke-Qin Xin, Ashok Srivastava, and Shozo Nakamura in Advance in Neuroimmunology) Vol.5 pp 335-358, 1995. GFAP is a marker for a general activation of astrocytes in the spinal cord and is expressed following damage to the CNS.
Male Sprague Dawley rats weighing 200-225 g were used.
The left sciatic nerve was isolated by blunt dissection, and wrapped with oxidized cellulose (Oxycel, Becton Dickinson) saturated with 250 ul sterile saline containing 400 ng of recombinant gp120 protein alone, or in the presence of 43 ng of the 8-mer L2/HNK-1 mimic peptide (corresponding to a 10×excess […] on a mole-per-mole basis), utilizing the Oxycel delivery method of Eliav et al (Eliav et al (1999) Pain 83(2): 169-82. Eight animals were treated with gp120 alone and eight animals were treated with gp120 and 43 ng peptidomimetic compound.
Animals were euthanized (overdose of xylazine/ketamine) at two and four weeks following surgery and perfused transcardially with ice cold saline followed by 4% paraformaldehyde.
Spinal cords were harvested and cryoprotected overnight at 30% sucrose solution 10 Sections of 40 um thickness from the lumbar enlargement from each animal were thaw mounted onto gelatized slides and stained immunohistochemically for Ox-42 (MACl), TNF and GFAP.

[8] = tested on: oligodendrocytes in mixed cerebellar cultures; test: Oligodendrocyte cultures treated with HIV gp120 and HNK-1 epitope mimic peptide, RIP immunostaining; type: cell-based, rat
Procedure: For these experiments, mixed neural cultures were isolated from rat cerebellum. Briefly, tissue was harvested from postnatal day five rat pups, dissociated and plated on poly-lysine coated 24 well cluster plates in Neural basal medium plus B27 supplement, 1% FBS and penicillin and streptomycin. HNK-1 epitope mimic peptide 8 mer (FLHTRLFV) (SEQ ID NO:8) (1 mM, 100 nM or 10 nM) was added to wells at the time of plating. Three days later, 1 nM gp120 was preincubated with 1 mM, 100 nM or 10 nM HNK-1 peptidomimetic for 1 hour at 37° C. After one hour, gp120 or gp120 plus HNK-1 peptidomimetic was added to mixed cerebellar cultures in sets of 6 replicates. Four days later, cultures were fixed and immunostained with the oligodendrocyte specific antibody marker, RIP. Data was analyzed by counting the number of RIP positive cells in twenty 20×-microscope fields. In addition, the number of RIP positive cells, mature oligodendrocytes with extensive intact membrane sheaths were counted. The cells are depicted in FIG. 20.

[9] = tested on: oligodendrocytes in mixed cerebellar cultures; test: as above; type: cell-based, rat; remark: listed apart in the source
[10] = tested on: embryonic neural cell cultures; test: Embryonic neural cell cultures treated with L1 and chemotherapeutic agents; type: cell-based; conditions: with cisplatin and vincristin; experiments not detailed
Description: Thus, in view of the recognized and previously described role of HNK-1 expressing cells, natural killer cells, in the surveillance of tumors and virus-infected cells, the carbohydrate epitope mimic peptides can be utilized in enhancing, activating or otherwise modulating the surveillance and clearance of tumors and virus-infected cells. The carbohydrate epitope mimic peptides of the present invention may also have use in the protection of cells, particularly neural cells from chemotherapeutic agents. In experiments not specifically detailed in the Examples herein, the inventors treated embryonic neural cell cultures with a combination of the neural cell adhesion molecule L1 and chemotherapeutic agents, including cisplatin and vincristin. The cell cytopathic effects of the chemotherapeutic agents were reduced in te presence of L1. L1expresses the HNK-1 epitope and a good portion of L1 homophilic binding is HNK-1 mediated. Thus, it is contemplated that the L2/HNK-1 epitope mimic peptide of the present invention can be utilized in the protection of cells, particularly neural cells from chemotherapeutic agents. Untoward cellular cytotoxic effects and problematic symptoms associated therewith are a recognized and limiting side effect of chemotherapy, inherently limiting the dose of the agents which can be administered.

[11] = target: monoclonal antibody L2-412; test: competition ELISA: L2-412 preincubated with inhibitor (2-fold dilutions from 2.2 mM), then binding to immobilized L2/HNK-1 glycolipid
[12] = gp120 400 ng + 43 ng 8-mer peptide on sciatic nerve, lumbar spinal cord
[13] = gp120 (1 nM) + 10 nM peptide, preincubated
[14] = gp120 (1 nM) + 100 nM peptide, preincubated
[15] = gp120 (1 nM) + 1 uM peptide, preincubated

S L A P Y S L R I F V L F G G A (SLAPYSLRIFVLFGGA) [Peptide 15H233]
binding of phage to coated HNK-1 antibody [1]: bind L2-412 and HNK-1, nearly to the same extent
binding of phage to coated L2-412 antibody [2]: bind L2-412 and HNK-1, nearly to the same extent

T R L F R V P V F R L G D F W (TRLFRVPVFRLGDFW) [Peptide 15H92]
binding of phage to coated HNK-1 antibody [1]: bind L2-412 and HNK-1, nearly to the same extent
binding of phage to coated L2-412 antibody [2]: bind L2-412 and HNK-1, nearly to the same extent

F L H T R L F V S D W Y H T P [phage 15-15]
binding of phage to coated HNK-1 antibody [1]: does not bind HNK-1 antibody to a significant extent
binding of phage to immobilized laminin [3]: bind to laminin in a concentration dependent manner

S G R G F C C W S N D S A L S [negative phage, reference compound]
inhibitory effect on L2-412 binding to immobilized L2-glycolipids ([4]; phage starting at 10^12): did not show this inhibitory effect

KGVSSRSYVGCIKNLEISRST
inhibition of HNK-1-mediated neural cell adhesion to laminin [5]: inhibited HNK-1-mediated neural cell adhesion to laminin
binding to the L2/HNK-1 carbohydrate [6]: bound to the L2/HNK-1 carbohydrate in a concentration-dependent manner

F L H T R L F V (FLHTRLFV; m13 library) [Consensus peptide]
GFAP immunoreactive area [7, 12]: 8745 pixels
Ox42 immunoreactive area [7, 12]: 1557 pixels
TNF immunoreactive area [7, 12]: 1478 pixels
effect on gp120-induced immunoreactivity ([7]; gp120 + peptide versus Oxycel alone): brings those values back to the same level as with Oxycel alone
cellular morphology of spinal cord sections, light microscopy ([7]; gp120 in combination with the HNK-1 peptide): This cellular morphology was not observed
fluorescence microscopy of RIP positive oligodendrocytes ([8]; 10 nM HNK-1 epitope mimic peptide): Numerous mature RIP positive oligodendrocytes with extensive membrane sheaths were observed
# mature RIP + cells/20 fields ([8]; 100 nM peptide): 16.33 cells/20 fields
Total # RIP + cells/20 fields ([8]; 100 nM peptide): 76.67 cells/20 fields
# mature RIP + cells/20 fields [8, 13]: 8.833 cells/20 fields
# mature RIP + cells/20 fields [8, 14]: 11.17 cells/20 fields
Total # RIP + cells/20 fields [8, 14]: 69.83 cells/20 fields
# mature RIP + cells/20 fields [8, 15]: 12.33 cells/20 fields
effect on mature oligodendrocytes and gp120-associated myelin destruction ([8]; summary of Table 6): increases the number of mature oligodendrocytes and blocks myelin destruction associated with gp 120 treatment
fluorescence microscopy of RIP positive oligodendrocytes ([9]; 1 nM gp120 preincubated with 1 uM HNK-1 epitope mimic peptide): indistinguishable from mature RIP positive cells observed in cultures treated with the HNK-1 epitope mimic peptide only
# mature RIP + cells/20 fields ([9]; 1 uM peptide): 13.33 cells/20 fields
Total # RIP + cells/20 fields ([9]; 1 uM peptide): 62.67 cells/20 fields
# mature RIP + cells/20 fields ([9]; 10 uM peptide): 22.33 cells/20 fields
Total # RIP + cells/20 fields ([9]; 10 uM peptide): 75.83 cells/20 fields
Total # RIP + cells/20 fields [9, 13]: 73.83 cells/20 fields
Total # RIP + cells/20 fields [9, 15]: 76.83 cells/20 fields

L1: neural cell adhesion molecule L1 [Peptide L1]
cell cytopathic effects of chemotherapeutic agents [10]: reduced

F L H T R L F V S D W Y H T (FLHTRLFVSDWYHT; m13 library) [Peptide 15-15]
inhibition of L2-412 binding to immobilized L2/HNK-1 glycolipids ([4]; highest inhibitor concentration (free peptide 2.2 mM, SO3-sugar 5 mM, phage 10^12 TUs/ml), no inhibitor = 0%): 30-35%

FLHTRLFVSDWYHT [peptide 15-15 (free synthetic peptide …)]
percent inhibition [11]: 30 to 35%
